Test results taken from patent US20190125869A1, “PULSED ELECTROMAGNETIC THERAPY FOR DIRECTING AGENTS TO CANCER CELLS” (MMTC, Inc., priority 2017, published 2019).

Tested on: AT2 prostatic tumor of rats
Experiment: Growth of implanted tumors after intravenous Taxol, with or without pulsed microwaves
Format: in vivo, Copenhagen rats
Experimental: Treatment times were 30 minutes.
One rat with four implanted tumors, two in each flank, was used. Taxol was injected intravenously at 5 mg/kg. The two lower (right and left) tumors were treated as described above with pulsed microwaves, beginning immediately after the injection. Tumor growth was monitored over 14 days.

CC(=O)O[C@H]1C(=O)[C@@]2(C)[C@H]([C@H](OC(=O)c3ccccc3)[C@]3(O)C[C@H](OC(=O)[C@H](O)[C@@H](NC(=O)c4ccccc4)c4ccccc4)C(C)=C1C3(C)C)[C@]1(OC(C)=O)CO[C@@H]1C[C@@H]2O [Taxol]
tumor size (Taxol 5 mg/kg intravenously plus pulsed microwaves (two treated tumors), after 14 days): barely detectable | tumor size (Taxol 5 mg/kg intravenously plus pulsed microwaves (two treated tumors), at 5 days): almost disappeared | tumor growth (Taxol 5 mg/kg intravenously, non-pulsed control tumors in the same rat, after 14 days): continued to grow | tumor size (Taxol 5 mg/kg intravenously, non-pulsed control tumors in the same rat, at 5 days): remained large | remission of tumors (microwave pulsing combined with systemically administered Taxol, pilot study summary): remission of tumors could be obtained
